Experimental findings from patent EP4635944A1, “2-AZABICYCLO[3.1.1]HEPTANE COMPOUND” (Daiichi Sankyo Company, Limited, priority 2022, dated 2024) are described below.

Structures are written as SMILES.

For the experiment, the target named is T1, human OX2R (Homo sapiens, UniProt O43614).
T1 construct: host or cells: CHO-K1 (Chinese Hamster Ovary K1)
T1 sequence (O43614 1-444): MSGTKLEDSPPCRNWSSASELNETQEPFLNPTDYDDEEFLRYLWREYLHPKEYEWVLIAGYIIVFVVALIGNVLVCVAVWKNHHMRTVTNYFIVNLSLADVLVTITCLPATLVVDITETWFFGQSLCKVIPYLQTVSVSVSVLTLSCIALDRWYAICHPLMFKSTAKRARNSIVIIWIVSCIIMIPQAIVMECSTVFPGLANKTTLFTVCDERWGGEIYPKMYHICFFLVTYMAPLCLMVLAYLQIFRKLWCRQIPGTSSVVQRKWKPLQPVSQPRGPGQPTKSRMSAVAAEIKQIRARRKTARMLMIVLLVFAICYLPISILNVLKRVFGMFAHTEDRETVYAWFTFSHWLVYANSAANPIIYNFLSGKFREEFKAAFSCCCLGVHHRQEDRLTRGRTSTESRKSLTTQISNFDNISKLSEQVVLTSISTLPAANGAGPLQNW
Kind of experiment: Evaluation of OX2R agonist activity (intracellular calcium, CHO-K1 cells with forced expression of human OX2R). In kind it is cell-based. To be noted: CHO-K1 cells expressing human OX2R; 100% = 5 µM of the reference compound; read-out: hOX2R EC50. Here is the method:
Evaluation of OX2R agonist activity
Chinese Hamster Ovary K1 (CHO-K1) cells (GenScript) with forced expression of human OX2R were seeded onto a 384 well microplate (Corning) at 7500 cells/well and cultured for 24 hours. 20 µL of the loading buffer (25 mM HEPES containing 1.25 mM of Probenecid and 2.5 µg/mL of Fluo 4-AM at final concentration, Hank's balanced salt solution, 0.06% Pluronic F-127, Quenching buffer) in the Calcium Kit II (DOJINDO LABORATORIES) was added, and the microplate was allowed to stand for 30 minutes. A reference compound (Example435 of WO 2019/027058, N-[(2S,3S)-2-[[3-(3,5-difluorophenyl)-2-fluoro-phenyl]methyl]-1-(2-hydroxy-2-methylpropanoyl)pyrrolidin-3-yl]ethanesulfonamide) or the test compound was added in 10 µL, and changes in intracellular calcium ion concentration were measured using FDSS7000EX (Hamamatsu Photonics K.K.) as a fluorescence intensity ratio obtained upon dual wavelength excitation at 480 nm and 540 nm. Note that the reference compound or test compound was dissolved in DMSO (final concentration of DMSO was 0.5%) and diluted with an assay buffer (20 mM HEPES, Hank's balanced salt solution, 0.1% BSA). The difference between the maximum and minimum fluorescence values between 5 and 7 seconds after the addition of the test compound or reference compound was used as the indicator. The value of wells to which the assay buffer containing no test compound was added was defined as 0%, and the value of wells to which 5 µM of the reference compound was added was defined as 100%. The 50% effective concentration (EC50 value) was determined from the values obtained when various concentrations of the test compound were added. […]
The EC50 is the concentration needed to bring the measured effect to its halfway point. As for `CS(=O)(=O)N[C@@H]1[C@H](Cc2cccc(-c3ccccc3)c2F)N(C(=O)c2ccon2)C2CC1(F)C2` (single isomer, unassigned) [Example 84], the half-maximal effective concentration (EC50) was 231 nM.
Regarding `C[C@@H](O)C(=O)N1C2CC(C2)[C@H](NS(C)(=O)=O)[C@@H]1Cc1cccc(-c2cc(F)cc(C#N)c2)c1F` [Example 31, N-{(3S,4S)-3-[(3'-Cyano-2,5'-difluoro[biphenyl]-3-yl)methyl]-2-[(2R)-2-hydroxypropanoyl]-2-azabicyclo[3.1.1]heptan-4-yl}methanesulfonamide], the EC50 stood at 189 nM.
In the case of `CCS(=O)(=O)N[C@H]1C2CC(C2)N(C(=O)[C@@H](C)O)[C@H]1Cc1cccc(-c2ccccc2)c1F` (single isomer, unassigned) [Example 80] it was 16 nM; in that of `CCS(=O)(=O)NC1C2CC(C2)N(C(=O)N(C)C)C1Cc1cccc(-c2cc(F)cc(F)c2)c1F` (single isomer, unassigned) [Example 7, 4-[(Ethylsulfonyl)amino]-N,N-dimethyl-3-[(2,3',5'-trifluoro[biphenyl]-3-yl)methyl]-2-azabicyclo[3.1.1]heptane-2-carboxamide], 213 nM.
In the case of `C=CS(=O)(=O)NC1C(Cc2cc(F)cc(-c3ccccc3)c2F)N(C(=O)[C@@H](C)O)C2CC1(F)C2` (single isomer, unassigned) [Example 96] it was 9.9 nM; in that of `CS(=O)(=O)N[C@H]1C2CC(C2)N(C(=O)[C@H]2C[C@@H]2F)[C@H]1Cc1cccc(-c2cc(F)cc(F)c2)c1F` [Example 29, N-{(3S,4S)-2-{[(1R,2S)-2-Fluorocyclopropyl]carbonyl}-3-[(2,3',5'-trifluoro[biphenyl]-3-yl)methyl]-2-azabicyclo[3.1.1]heptan-4-yl}methanesulfonamide], 253 nM.
On to `C[C@@H](O)C(=O)N1C2CC(C2)[C@H](NS(C)(=O)=O)[C@@H]1Cc1cccc(-c2csc(Cl)c2)c1F` [Example 68, N-{(3S,4S)-3-[3-(5-Chlorothiophen-3-yl)-2-fluorobenzyl]-2-[(2R)-2-hydroxypropanoyl]-2-azabicyclo[3.1.1]heptan-4-yl}methanesulfonamide], for which the EC50 amounted to 37 nM.
For `CS(=O)(=O)NC1C2CC(C2)N(C(=O)C2CC2)C1Cc1ccnc(-c2cccc(Cl)c2)c1F` (single isomer, unassigned) [Example 60, N-[3-{[2-(3-Chlorophenyl)-3-fluoropyridin-4-yl]methyl}-2-(cyclopropylcarbonyl)-2-azabicyclo[3.1.1]heptan-4-yl]methanesulfonamide], the EC50 amounted to 75 nM.
As for `C[C@H](O)CC(=O)N1C2CC(C2)[C@H](NS(C)(=O)=O)[C@@H]1Cc1cccc(-c2ccccc2)c1F` (single isomer, unassigned) [Example 86], the EC50 was 112 nM.
In the case of `C[C@@H](O)C(=O)N1C2CC(C2)[C@H](NS(C)(=O)=O)[C@@H]1Cc1cccc(-c2cccc3c2OC(F)(F)O3)c1F` [Example 38, N-{(3S,4S)-3-[3-(2,2-Difluoro-1,3-benzodioxol-4-yl)-2-fluorobenzyl]-2-[(2R)-2-hydroxypropanoyl]-2-azabicyclo[3.1.1]heptan-4-yl}methanesulfonamide] it was 68 nM; in that of `CS(=O)(=O)NC1C(Cc2cccc(-c3cc(F)cc(F)c3)c2F)N(C(=O)C2CC2)C2CC1(F)C2` (single isomer, unassigned) [Example 36, N-{(3S,4R)-2-(Cyclopropylcarbonyl)-5-fluoro-3-[(2,3',5'-trifluoro[biphenyl]-3-yl)methyl]-2-azabicyclo[3.1.1]heptan-4-yl}methanesulfonamide or N-{(3R,4S)-2-(cyclopropylcarbonyl)-5-fluoro-3-[(2,3',5'-trifluoro[biphenyl]-3-yl)methyl]-2-azabicyclo[3.1.1]heptan-4-yl}methanesulfonamide], 62 nM.
Under `CS(=O)(=O)N[C@@H]1[C@H](Cc2cccc(-c3ccccc3)c2F)N(C(=O)[C@H]2CCO2)C2CC1(F)C2` [Example 70, N-{(3S,4R)-5-Fluoro-3-[(2-fluoro[biphenyl]-3-yl)methyl]-2-[(2R)-oxetan-2-ylcarbonyl]-2-azabicyclo[3.1.1]heptan-4-yl}methanesulfonamide] stands 26 nM.
Under `CS(=O)(=O)N[C@H]1C2CC(C2)N(C(=O)C2(F)CC2)[C@H]1Cc1cccc(-c2cc(F)cc(F)c2)c1F` [Example 19, N-{(3S,4S)-2-[(1-Fluorocyclopropyl)carbonyl]-3-[(2,3',5'-trifluoro[biphenyl]-3-yl)methyl]-2-azabicyclo[3.1.1]heptan-4-yl}methanesulfonamide] stands 380 nM; under `CS(=O)(=O)N[C@@H]1[C@H](Cc2cccc(-c3ccccc3)c2F)N(C(=O)[C@H](O)C(F)(F)F)C2CC1(F)C2` [Example 69, N-{(3S,4R)-5-Fluoro-3-[(2-fluoro[biphenyl]-3-yl)methyl]-2-[(2S)-3,3,3-trifluoro-2-hydroxypropanoyl]-2-azabicyclo[3.1.1]heptan-4-yl}methanesulfonamide], 35 nM; under `CC(C)S(=O)(=O)N[C@H]1C2CC(C2)N(C(=O)C(C)(C)O)[C@H]1Cc1cccc(-c2cc(F)cc(F)c2)c1F` (single isomer, unassigned) [Example 4], 225 nM.
With `CC(C)(O)C(=O)N1C2CC(F)(C2)C(NS(C)(=O)=O)C1Cc1cccc(-c2cc(F)cc(F)c2)c1F` (single isomer, unassigned) [Example 12, N-{5-Fluoro-2-(2-hydroxy-2-methylpropanoyl)-3-[(2,3',5'-trifluoro[biphenyl]-3-yl)methyl]-2-azabicyclo[3.1.1]heptan-4-yl}methanesulfonamide], the EC50 amounted to 27 nM.
With `CC(C)(O)C(=O)N1C2CC(C2)C(NS(C)(=O)=O)C1Cc1cccc(-c2cc(F)cc(F)c2)c1` (single isomer, unassigned) [Example 13, N-{3-[(3',5'-Difluoro[biphenyl]-3-yl)methyl]-2-(2-hydroxy-2-methylpropanoyl)-2-azabicyclo[3.1.1]heptan-4-yl}methanesulfonamide], the EC50 is 1140 nM.
In the case of `CS(=O)(=O)N[C@@H]1[C@H](Cc2cccc(-c3ccccc3)c2F)N(C(=O)C2(O)CC2)C2CC1(F)C2` [Example 71, N-{(3S,4R)-5-Fluoro-3-[(2-fluoro[biphenyl]-3-yl)methyl]-2-[(1-hydroxycyclopropyl)carbonyl]-2-azabicyclo[3.1.1]heptan-4-yl}methanesulfonamide] it was 39 nM; in that of `CS(=O)(=O)N[C@H]1C2CC(C2)N(C(=O)C2(C#N)CC2)[C@H]1Cc1cccc(-c2cc(F)cc(F)c2)c1F` [Example 33, N-{(3S,4S)-2-[(1-Cyanocyclopropyl)carbonyl]-3-[(2,3',5'-trifluoro[biphenyl]-3-yl)methyl]-2-azabicyclo[3.1.1]heptan-4-yl}methanesulfonamide], 326 nM.
Turning to `CC(C)(O)C(=O)N1C2CC(C2)[C@H](NS(C)(=O)=O)[C@@H]1Cc1cccc(-c2cccc(F)c2F)c1F` [Example 8, N-{(3S,4S)-2-(2-Hydroxy-2-methylpropanoyl)-3-[(2,2',3'-trifluoro[biphenyl]-3-yl)methyl]-2-azabicyclo[3.1.1]heptan-4-yl}methanesulfonamide], the EC50 came to 83 nM.
In the case of `CC(C)(O)C(=O)N1C2CC(F)(C2)[C@H](NS(C)(=O)=O)[C@@H]1Cc1cccc(-c2ccccc2)c1F` [Example 50, N-[(3S,4R)-5-Fluoro-3-[(2-fluoro[biphenyl]-3-yl)methyl]-2-(2-hydroxy-2-methylpropanoyl)-2-azabicyclo[3.1.1]heptan-4-yl]methanesulfonamide] it was 41 nM.
Under `COc1cccc(-c2cccc(C[C@H]3[C@@H](NS(C)(=O)=O)C4CC(C4)N3C(=O)C(C)(C)O)c2F)c1` (stereo in doubt) [Example 14, N-[(3S,4S)-3-[(2-Fluoro-3'-methoxy[biphenyl]-3-yl)methyl]-2-(2-hydroxy-2-methylpropanoyl)-2-azabicyclo[3.1.1]heptan-4-yl]methanesulfonamide] stands 298 nM; under `CCS(=O)(=O)NC1C2CC(C2)N(C(=O)C23CC(C2)C3)C1Cc1cccc(-c2cc(F)cc(F)c2)c1F` (single isomer, unassigned) [Example 5, N-{2-(Bicyclo[1.1.1]pentan-1-ylcarbonyl)-3-[(2,3',5'-trifluoro[biphenyl]-3-yl)methyl]-2-azabicyclo[3.1.1]heptan-4-yl}ethanesulfonamide], 239 nM.
